These results are taken from PubChem BioAssay (NCI).

The experiment concerns MDA-MB-468 breast. In words: DTP human tumour cell line panel, 48 h.

Usually GI50 stands for the concentration at which growth is held to half of that of the control. Broadly, the TGI is the concentration at which net growth stops. High values mean less potent growth arrest, low ones more potent growth arrest.

SMILES strings stand for the structures. Where “and” joins values, the source holds several entries; their conditions need not be identical. Equal values may be shown once.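 Grown in 96-well plates, cells were treated for 48 hours with each compound at five concentrations. Insufficient inhibition: endpoint recorded as highest concentration tested. GI50 = concentration required for 50% inhibition of growth. TGI denotes the concentration required for complete inhibition of growth.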

As to `O=C(Cc1ccc(OCc2ccccc2)cc1)NCc1ccc2c(c1)OCO2`, the GI50 is 5900 nM and the TGI was greater than 100000 nM.
In the case of `NC1(c2ccc(-c3nc4ccn5c(=O)[nH]nc5c4cc3-c3ccccc3)cc2)CCC1`, the GI50 is 16.9 nM and 94.3 nM and 62.6 nM.
On to `CN1CCN(Cc2ccc(NC(=O)c3cncc(C#Cc4cnc5ccc(Cl)nn45)c3)cc2C(F)(F)F)CC1`, for which the GI50 is 1110 nM and the TGI was determined as 2580 nM.
On to `CC1CN=C(c2cccc(-c3ccc(-c4ccccc4)o3)c2)N1` (stereo not drawn), for which the GI50 was 1690 nM and the concentration for total growth inhibition (TGI) came out at 3920 nM.
Turning to `C=C1C(=O)O[C@H]2[C@H]1CC/C(COC(=O)NCc1c[nH]c3ccc(Br)cc13)=C\CC[C@@]1(C)O[C@@H]21`, the GI50 is 451 nM and the TGI was found to be 1930 nM.
The like results for `O=C(Nc1ccc(-n2ccc3c(NC(=O)c4ccccc4)ncnc32)cc1)c1ccc(Cl)c(C(F)(F)F)c1` were, in that order, 2860 nM and 9230 nM.
The like results for `COc1ccc(-c2cn(-c3cccc(C(=O)/C=C/c4cc(OC)c(OC)c(OC)c4)c3)c(=O)[nH]2)cc1` were, in that order, 3070 nM and 10800 nM.
The like results for `O=C1C=C(Nc2cccnc2)c2ccccc2C1=O` were, in that order, 3200 nM and 11100 nM.
For the molecule `COc1cc(/C=C\c2cc(/C=C\c3ccc(O)c(OC)c3)n(C(=O)COc3ccccc3)n2)ccc1O`, the GI50 was 1710 nM and the TGI came to 7390 nM.
In the case of `Nc1cc2ccccc2c(O)c1O`, the GI50 is 2190 nM and the TGI was 4750 nM.
The like results for `O=C1C=C2C(=CCOC2O)O1` (stereo not drawn) were, in that order, 425 nM and 2760 nM.
As to `NC(=O)c1cc(Cl)ccc1NC(=O)COc1ccccc1`, the GI50 was 1740 nM and the TGI was greater than 100000 nM.
For the molecule `CCN1C2=C(SC(=S)C1=C1SC(C(=O)OC)=C(C(=O)OC)S1)SC(=Nc1ccc(OC)cc1)C2=O`, the GI50 is 1730 nM and the concentration for total growth inhibition (TGI) is 3460 nM.
Consider `CO[C@H]1C[C@@H]2CC[C@@H](C)[C@@](O)(O2)C(=O)C(=O)N2CCCC[C@H]2C(=O)O[C@H]([C@H](C)C[C@@H]2CC[C@@H](O)[C@H](OC)C2)CC(=O)[C@H](C)C=C(C)[C@@H](O)[C@@H](OC)C(=O)[C@H](C)C[C@H](C)/C=C/C=C/C=C1C`, for which the GI50 was 0.0364 nM and 0.315 nM; the concentration for total growth inhibition (TGI) was determined as 13400 nM.
Consider `Nc1c(C(=O)c2cccc(-c3ccncc3)c2)cnn1-c1ccc(F)cc1`, for which the GI50 is 4420 nM and the TGI is greater than 25000 nM.
On the same counts, the results for `C1CCC(C(CC2CCCCN2)C2CCCCC2)CC1` (stereo not drawn) are 1370 nM and 2850 nM.
On the same counts, the results for `CNC[C@@H](NC(=O)c1ccc(-c2nc([C@H]3CC[C@H](O)[C@@H](F)C3)cnc2N)cc1F)c1cc(F)cc(Br)c1` are 13200 nM and 28400 nM.
In the case of `C#CCN(C)CCCOc1ccc(NCc2ccc(/C=C/C(=O)NO)cc2)cc1Cl`, the GI50 is 411 nM and the TGI came to 3550 nM.
Regarding `COc1cccc(-n2ncc3c(N/N=C/c4cccc(F)c4)ncnc32)c1`, the GI50 is 5440 nM and the TGI is 13600 nM.
On the same counts, the results for `CN(C)c1ccc(N=Nc2ccc(Br)cn2)c(O)c1` are 469 nM and 3980 nM.
The like results for `CC(C)CNC(=O)c1ccc(NC(=O)N(CC(C)C)C(=O)c2ccc(N)c(OCCCN)c2)c(OCCCN=C(N)N)c1` were, in that order, greater than 62500 nM and greater than 62500 nM.
On the same counts, the results for `CCN1CCN(Cc2ccc(NC(=O)c3nc4ccc5[nH]ncc5c4c4c3CCCC4)cc2C(F)(F)F)CC1` are 893 nM and 1790 nM.
For the molecule `Cc1cnc(NC2CCOCC2)nc1-n1cnc(C(=O)N[C@H](CN)c2cc(F)cc(Cl)c2)c1`, the GI50 was 2670 nM and the concentration for total growth inhibition (TGI) was found to be 11800 nM.
The like results for `N=C(N)c1ccc(-c2ccc(-c3ccc(F)cc3)s2)nc1` were, in that order, 1630 nM and 3380 nM.
On the same counts, the results for `CN1C(=O)C23CC4(C56CC78SSC(CO)(C(=O)N7C5Nc5ccccc56)N(C)C8=O)c5ccccc5NC4N2C(=O)C1(CO)SS3` (stereo not drawn) are less than 24.1 nM and 60.6 nM.
The like results for `C=C(C)[C@@H]1CC[C@]2(C)[C@H](CC[C@@H]3[C@@H]([C@@](C)(O)CCC=C(C)C)CC[C@]32C)[C@@]1(C)CCC(=O)N1CCN(C)CC1` were, in that order, 5490 nM and 18500 nM.
Regarding `C/C(=C\C(=N\N=C(N)N)c1ccc(Cl)cc1)c1ccc(Cl)cc1`, the GI50 was 125 nM and the TGI worked out at 1460 nM.
Take `CCCCCCCCCOc1c(OC)cc(C2CC(=O)Nc3c2c(C)nn3-c2nc3ccccc3[nH]2)cc1OC` (stereo not drawn): the GI50 was 891 nM and the TGI turned out to be 2090 nM.
On the same counts, the results for `c1ccc(-c2cccc(-c3ccccn3)n2)nc1` are 284 nM and 1730 nM.
Regarding `c1ccc(-c2nc([P+](c3ccccc3)(c3ccccc3)c3ccccc3)c(N3CCOCC3)o2)cc1`, the GI50 is 278 nM and the TGI stood at 1060 nM.
The like results for `O=c1[nH]c2c3ccncc3cc(-c3cccc(Cl)c3)c2c2cnccc12` were, in that order, greater than 100000 nM and greater than 100000 nM.
The like results for `COC(=O)[C@]12CC[C@@H](C(=O)/C=C/c3cccnc3)[C@@H]1[C@H]1CC[C@@H]3[C@@]4(C)C/C(=C/c5cccnc5)C(=O)C(C)(C)[C@@H]4CC[C@@]3(C)[C@]1(C)CC2` were, in that order, 272 nM and 712 nM.
On the same counts, the results for `COc1ccc2[nH]c(=O)c(/C=C/C(=O)c3ccccc3OC)cc2c1` are 336 nM and 1650 nM.
Take `Oc1ccc(Cl)cc1-c1cc(-c2ccc(Cl)cc2)n[nH]1`: the GI50 was 1400 nM and the concentration for total growth inhibition (TGI) worked out at 6440 nM.
On the same counts, the results for `O=C(C1CC1)N1CC[C@@H](Cc2n[nH]c(=O)n2-c2ccc(-c3ccc4occc4c3)cc2)C1` are 20300 nM and 98100 nM.
On the same counts, the results for `COC(=O)CCC1=C(C)C(C)=N/C1=C\c1[nH]c(-c2ccc[nH]2)cc1OC` are 647 nM and 2700 nM.
The like results for `N=C(N)c1ccc(-c2ccc(-c3cccs3)o2)cc1` were, in that order, 1720 nM and 3400 nM.
Take `COC(=O)[C@@H](C)C[C@H](Cc1ccccc1)NC(=O)c1nc([C@@H](C[C@H](C(C)C)N(C)C(=O)[C@@H](NC(=O)[C@H]2CCCCN2C)C(C)C)OC(C)=O)sc1C(C)C`: the GI50 was less than 3.33 nM and the total growth inhibition concentration (TGI) came to 137 nM.
As for `C/C(=N\NC(=O)c1ccccc1N)c1ccccc1O`, the GI50 was 1710 nM and the concentration for total growth inhibition (TGI) came out at 13800 nM.
With `CCOC(=O)C#Cc1c(C(=O)OCC)nnn1Cc1ccc(C(F)(F)F)cc1`, the GI50 is 1880 nM and the TGI is 4050 nM.
On the same counts, the results for `COc1ccc2c(c1)C(=O)c1c-2c(=O)n(CCCCCCC(=O)NO)c2ccccc12` are 46.3 nM and 449 nM.
The like results for `Cc1cc(-c2ccc(C3C(C#N)=C(N)Oc4c3c(=O)oc3ccccc43)cc2)cnc1F` (stereo not drawn) were, in that order, 17500 nM and 82500 nM.
